Source: patent US10508109B2 (priority 2015, dated 2019)

Tests used:
CCD-18Co = assay: Cell-based assay, anti-proliferative activity (Cell Counting Kit-8, 72 hours); details: Homo sapiens; CCD-18Co cells, Cell Counting Kit-8, 72 hours; read-out: IC50 (μM) CCD-18Co
Procedure, shortened: (§1)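 Cells were seeded in 96-well plates and exposed to the inhibitors for 72 hours, after which growth was measured with Cell Counting Kit-8. IC50 was derived from a serial dilution series of 0, 1.5625, 3.125, 6.25, 12.5, 25, 50 and 100 micro-M.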

HFL1 = assay: as above; details: Homo sapiens; HFL1 cells, Cell Counting Kit-8, 72 hours; read-out: IC50 (μM) HFL1
Procedure, shortened: as §1

HCT-116 = assay: as above; details: Homo sapiens; HCT-116 cells, Cell Counting Kit-8, 72 hours; read-out: IC50 (μM) HCT-116
Procedure, shortened: as §1

PC14 = assay: as above; details: Homo sapiens, PC-14; PC14 cells, Cell Counting Kit-8, 72 hours; read-out: IC50 (μM) PC14
Procedure, shortened: as §1

A549 = assay: as above; details: Homo sapiens; A549 cells, Cell Counting Kit-8, 72 hours; read-out: IC50 (μM) A549
Procedure, shortened: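 Cells were seeded in 96-well plates and exposed to candidate inhibitors. Cellular growth was then determined with the colorimetric kit, and IC50 values were calculated from the growth data.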

SUV39H2 = SUV39H2 (Homo sapiens (Human), UniProt Q9H5I1); details: read-out: IC50 (μM) Suv 39H2 assay; enzyme assay
SUV39H2, sequence (Q9H5I1 whole entry): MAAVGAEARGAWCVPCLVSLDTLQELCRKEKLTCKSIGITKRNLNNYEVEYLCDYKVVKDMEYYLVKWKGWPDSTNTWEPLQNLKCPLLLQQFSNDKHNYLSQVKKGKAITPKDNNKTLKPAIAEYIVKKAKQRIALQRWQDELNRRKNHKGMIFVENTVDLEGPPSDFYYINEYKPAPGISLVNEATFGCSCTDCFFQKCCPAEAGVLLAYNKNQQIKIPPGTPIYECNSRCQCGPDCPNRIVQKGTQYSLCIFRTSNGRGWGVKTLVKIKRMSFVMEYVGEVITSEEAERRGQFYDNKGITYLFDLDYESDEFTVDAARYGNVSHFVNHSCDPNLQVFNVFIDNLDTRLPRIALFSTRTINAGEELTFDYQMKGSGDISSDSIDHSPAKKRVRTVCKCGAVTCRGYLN

## COc1cc(OC)c(-c2cn3ccc(N4CCN(CCF)CC4)cc3n2)cc1Cl [Example 104, 2-(5-chloro-2,4-dimethoxyphenyl)-7-(4-(2-fluoroethyl)piperazin-1-yl)-imidazo[1,2-a]pyridine]
CCD-18Co
  IC50: 8.9 µM
HFL1
  IC50: 4.2 µM
HCT-116
  IC50: 8.3 µM
PC14
  IC50: 4.7 µM
A549
  IC50: 6.7 µM
SUV39H2
  IC50: 0.00666 µM

## COC(=O)NC1CCN(c2ccn3cc(-c4cc(Cl)c(OC)cc4OC)nc3c2)CC1 [Example 122, methyl (1-(2-(5-chloro-2,4-dimethoxyphenyl)imidazo[1,2-a]pyridin-7-yl)piperidin-4-yl)carbamate]
CCD-18Co
  IC50: 6.4 µM
HFL1
  IC50: 4.9 µM
HCT-116
  IC50: 5.8 µM
PC14
  IC50: 3.3 µM
A549
  IC50: 2.7 µM
SUV39H2
  IC50: 0.00814 µM

## COc1cc(OC)c(-c2cn3ccc(N4CCC(NC(=O)C(C)(C)C)CC4)cc3n2)cc1Cl [Example 123, N-(1-(2-(5-chloro-2,4-dimethoxyphenyl)imidazo[1,2-a]pyridin-7-yl)piperidin-4-yl)pivalamide]
CCD-18Co
  IC50: 3.4 µM
HFL1
  IC50: 2 µM
HCT-116
  IC50: 2.6 µM
PC14
  IC50: 2.2 µM
A549
  IC50: 3.3 µM
SUV39H2
  IC50: 0.00771 µM

## COc1cc(OC)c(-c2cn3ccc(N4CCC(NC(C)=O)CC4)cc3n2)cc1Cl [Example 124, N-{1-[2-(5-chloro-2,4-dimethoxyphenyl)imidazo[1,2-a]pyridin-7-yl]piperidin-4-yl}acetamide]
CCD-18Co
  IC50: 3.1 µM
HFL1
  IC50: 3.1 µM
HCT-116
  IC50: 1.9 µM
PC14
  IC50: 1.9 µM
A549
  IC50: 2.2 µM
SUV39H2
  IC50: 0.00327 µM

## COc1cc(OC)c(-c2cn3ccc(C4CCC(N)CC4)cc3n2)cc1Cl (stereo not drawn) [Example 125, 4-(2-(5-chloro-2,4-dimethoxyphenyl)imidazo[1,2-a]pyridin-7-yl)-cyclohexanamine]
CCD-18Co
  IC50: 2.9 µM
HFL1
  IC50: 2.7 µM
HCT-116
  IC50: 2.7 µM
PC14
  IC50: 5 µM
A549
  IC50: 2.3 µM
SUV39H2
  IC50: 0.0651 µM

## COc1cc(OC)c(-c2cn3ccc(N4CCC(NS(=O)(=O)C5CC5)CC4)cc3n2)cc1Cl [Example 126, N-{1-[2-(5-chloro-2,4-dimethoxyphenyl)imidazo[1,2-a]pyridin-7-yl]piperidin-4-yl}cyclopropanesulfonamide]
CCD-18Co
  IC50: 1.8 µM
HFL1
  IC50: 1.4 µM
HCT-116
  IC50: 1.9 µM
PC14
  IC50: 3.1 µM
A549
  IC50: 2.1 µM
SUV39H2
  IC50: 0.014 µM

## COc1cc(OCCCN(C)C)c(-c2cn3ccc(N4CCN(C(=O)OC(C)(C)C)CC4)cc3n2)cc1Cl [Example 127, tert-butyl 4-(2-{5-chloro-2-[3-(dimethylamino)propoxy]-4-methoxyphenyl}imidazo[1,2-a]pyridin-7-yl)piperazine-1-carboxylate]
CCD-18Co
  IC50: 0.83 µM
HFL1
  IC50: 0.5 µM
HCT-116
  IC50: 1.2 µM
PC14
  IC50: 1.6 µM
A549
  IC50: 1.6 µM
SUV39H2
  IC50: 0.0995 µM

## COc1cc(OC)c(-c2cn3ccc(N4CCC(NS(C)(=O)=O)CC4)cc3n2)cc1Cl [Example 128, N-{1-[2-(5-chloro-2,4-dimethoxyphenyl)imidazo[1,2-a]pyridin-7-yl]piperidin-4-yl}methanesulfonamide]
CCD-18Co
  IC50: 1.1 µM
HFL1
  IC50: 0.58 µM
HCT-116
  IC50: 4.5 µM
PC14
  IC50: 1.8 µM
A549
  IC50: 1.5 µM
SUV39H2
  IC50: 0.00883 µM

## CCCCCNC1CCN(c2ccn3cc(-c4cc(Cl)c(OC)cc4OC)nc3c2)CC1 [Example 129, 1-[2-(5-chloro-2,4-dimethoxyphenyl)imidazo[1,2-a]pyridin-7-yl]-N-pentylpiperidin-4-amine]
CCD-18Co
  IC50: 1.3 µM
HFL1
  IC50: 0.7 µM
HCT-116
  IC50: 0.74 µM
PC14
  IC50: 1.7 µM
A549
  IC50: 1.5 µM
SUV39H2
  IC50: 0.00841 µM

## COc1cc(OC)c(-c2cn3ccc(N4CCN(CCCN(C)C)CC4)cc3n2)cc1Br [Example 130, 3-(4-(2-(5-bromo-2,4-dimethoxyphenyl)imidazo[1,2-a]pyridin-7-yl)-piperazin-1-yl)-N,N-dimethylpropan-1-amine]
CCD-18Co
  IC50: 6.6 µM
HFL1
  IC50: 4.6 µM
HCT-116
  IC50: 2.8 µM
PC14
  IC50: 2.6 µM
A549
  IC50: 2.7 µM
SUV39H2
  IC50: 0.003 µM

## COc1cc(OC)c(-c2cn3ccc(N4CCN(CCN5CCOCC5)CC4)cc3n2)cc1Br [Example 131, 4-(2-(4-(2-(5-bromo-2,4-dimethoxyphenyl)imidazo[1,2-a]pyridin-7-yl)-piperazin-1-yl)ethyl)morpholine]
CCD-18Co
  IC50: 8.3 µM
HFL1
  IC50: 7.3 µM
HCT-116
  IC50: 8.4 µM
PC14
  IC50: 6.8 µM
A549
  IC50: 8.3 µM
SUV39H2
  IC50: 0.00349 µM

## CCOC(=O)CCN1CCN(c2ccn3cc(-c4cc(Cl)c(OC)cc4OC)nc3c2)CC1 [Example 132, ethyl 3-(4-(2-(5-chloro-2,4-dimethoxyphenyl)imidazo[1,2-a]pyridin-7-yl)piperazin-1-yl)propanoate]
CCD-18Co
  IC50: 22 µM
HFL1
  IC50: 7.6 µM
HCT-116
  IC50: 9.8 µM
PC14
  IC50: 9 µM
A549
  IC50: 11 µM
SUV39H2
  IC50: 0.0124 µM

## COc1cc(OC)c(-c2cn3ccc(C4=CCN(CCO)CC4)cc3n2)cc1Cl [Example 134, 2-(4-(2-(5-chloro-2,4-dimethoxyphenyl)imidazo[1,2-a]pyridin-7-yl)-5,6-dihydropyridin-1(2H)-yl)ethanol]
CCD-18Co
  IC50: 5.4 µM
HFL1
  IC50: 3.8 µM
HCT-116
  IC50: 6.8 µM
PC14
  IC50: 5.3 µM
A549
  IC50: 5 µM
SUV39H2
  IC50: 0.0576 µM

## COc1cc(OC)c(-c2cn3ccc(N4CCN(CCN5CCCCC5)CC4)cc3n2)cc1Cl [Example 135, 2-(5-chloro-2,4-dimethoxyphenyl)-7-(4-(2-(piperidin-1-yl)ethyl)piperazin-1-yl)imidazo[1,2-a]pyridine]
CCD-18Co
  IC50: 2.8 µM
HFL1
  IC50: 4.8 µM
HCT-116
  IC50: 2.4 µM
PC14
  IC50: 2.6 µM
A549
  IC50: 3 µM
SUV39H2
  IC50: 0.0128 µM

## COc1cc(OC)c(-c2cn3ccc(N4CCN(CCN5CCN(C(=O)OC(C)(C)C)CC5)CC4)cc3n2)cc1Cl [Example 136, tert-butyl 4-(2-(4-(2-(5-chloro-2,4-dimethoxyphenyl)imidazo[1,2-a]pyridin-7-yl)piperazin-1-yl)ethyl)piperazine-1-carboxylate]
CCD-18Co
  IC50: 1.8 µM
HFL1
  IC50: 1.8 µM
HCT-116
  IC50: 1.5 µM
PC14
  IC50: 2.2 µM
A549
  IC50: 1.5 µM
SUV39H2
  IC50: 0.0166 µM

## COc1cc(OC)c(-c2cn3ccc(N4CCN(CCC(N)=O)CC4)cc3n2)cc1Cl [Example 137, 3-(4-(2-(5-chloro-2,4-dimethoxyphenyl)imidazo[1,2-a]pyridin-7-yl)piperazin-1-yl)propanamide]
CCD-18Co
  IC50: 14 µM
HFL1
  IC50: 13 µM
HCT-116
  IC50: 14 µM
PC14
  IC50: 12 µM
A549
  IC50: 24 µM
SUV39H2
  IC50: 0.00454 µM

## COc1cc(OC)c(-c2cn3ccc(N4CCNC4=O)cc3n2)cc1Cl [Example 138, 1-(2-(5-chloro-2,4-dimethoxyphenyl)imidazo[1,2-a]pyridin-7-yl)-imidazolidin-2-one]
CCD-18Co
  IC50: 2.2 µM
HFL1
  IC50: 5.5 µM
HCT-116
  IC50: 16 µM
PC14
  IC50: 3.6 µM
A549
  IC50: 5.2 µM
SUV39H2
  IC50: 0.0201 µM

## COc1cc(OCCCN(C)C)c(-c2cn3ccc(N4CCNCC4)cc3n2)cc1Cl [Example 139, 3-{4-chloro-5-methoxy-2-[7-(piperazin-1-yl)imidazo[1,2-a]pyridin-2-yl]phenoxy}-N,N-dimethylpropan-1-amine]
CCD-18Co
  IC50: 2.5 µM
HFL1
  IC50: 1.6 µM
HCT-116
  IC50: 2.4 µM
PC14
  IC50: 2.1 µM
A549
  IC50: 1.7 µM
SUV39H2
  IC50: 0.025 µM

## CCOC(=O)CCN1CC=C(c2ccn3cc(-c4cc(Cl)c(OC)cc4OC)nc3c2)CC1 [Example 140, ethyl 3-(4-(2-(5-chloro-2,4-dimethoxyphenyl)imidazo[1,2-a]pyridin-7-yl)-5,6-dihydropyridin-1(2H)-yl)propanoate]
CCD-18Co
  IC50: 56 µM
HFL1
  IC50: 27 µM
HCT-116
  IC50: 16 µM
PC14
  IC50: 12 µM
A549
  IC50: 25 µM
SUV39H2
  IC50: 0.0578 µM

## COc1cc(OC)c(-c2cn3ccc(N4CCN(CCN5CCNCC5)CC4)cc3n2)cc1Cl [Example 142, 2-(5-chloro-2,4-dimethoxyphenyl)-7-(4-(2-(piperazin-1-yl)ethyl)piperazin-1-yl)imidazo-[1,2-a]pyridine]
CCD-18Co
  IC50: 7.8 µM
HFL1
  IC50: 7.1 µM
HCT-116
  IC50: 8.2 µM
PC14
  IC50: 8.7 µM
A549
  IC50: 6.6 µM
SUV39H2
  IC50: 0.00785 µM

## COc1cc(OC)c(-c2cn3ccc(N4CCN(CCN5CCCC5)CC4)cc3n2)cc1Cl [Example 143, 2-(5-chloro-2,4-dimethoxyphenyl)-7-(4-(2-(pyrrolidin-1-yl)ethyl)piperazin-1-yl)imidazo[1,2-a]pyridine]
CCD-18Co
  IC50: 2.7 µM
HFL1
  IC50: 8.5 µM
HCT-116
  IC50: 8.1 µM
PC14
  IC50: 4.4 µM
A549
  IC50: 4 µM
SUV39H2
  IC50: 0.0044 µM

## COc1cc(OC)c(-c2cn3ccc(C4=CCN(CCN5CCOCC5)CC4)cc3n2)cc1Cl [Example 144, 4-(2-{4-[2-(5-chloro-2,4-dimethoxyphenyl)imidazo[1,2-a]pyridin-7-yl]-5,6-dihydropyridin-1(2H)-yl}ethyl)morpholine]
CCD-18Co
  IC50: 6.3 µM
HFL1
  IC50: 7 µM
HCT-116
  IC50: 5.9 µM
PC14
  IC50: 1.5 µM
A549
  IC50: 3.9 µM
SUV39H2
  IC50: 0.0191 µM

## COc1cc(OC)c(-c2cn3ccc(N4CCN(C(=O)OC(C)(C)C)CC4)nc3n2)cc1Cl [Example 145, tert-butyl 4-[2-(5-chloro-2,4-dimethoxyphenyl)imidazo[1,2-a]pyrimidin-7-yl]piperazine-1-carboxylate]
CCD-18Co
  IC50: 2.8 µM
HFL1
  IC50: 2.8 µM
HCT-116
  IC50: 3.1 µM
PC14
  IC50: 1.5 µM
A549
  IC50: 1.9 µM
SUV39H2
  IC50: 0.0738 µM
